What was measured:
Format in all cases: binding
Settings in all cases: ✓ / X, key not given
2β3α = assay: Epitope mapping, PDGFRβ/α chimera
Description: (§1) Various chimeric constructs of PDGFRβ and PDGFRα were first made by domain swapping, starting from N-terminus to C-terminus with PDGFRβ domain(s) replacing PDGFRα domain(s). The PDGFRβ/α chimera were tested for the ability of 2C5 binding. Shorter versions of PDGFRβ, including D1D2, D2D3 and D1D2D3, were then made to confirm the 2C5 binding domains on PDGFRβ.

3β2α = assay: Epitope mapping, PDGFRβ/α chimera
Description: as §1, with “2C5 binds to domain 1 (D1) and domain 2 (D2) of PDGFRβ. Various” for “Various”

4β1α = assay: Epitope mapping, PDGFRβ/α chimera
Description: as §1, with “2C5 binds to domain 1 (D1) and domain 2 (D2) of PDGFRβ. Various” for “Various”

h5α = h5α (Homo sapiens, UniProt P16234); assay: Epitope mapping
Description: as §1

m5β = molecular target: T1, m5β (Mus musculus, UniProt P05622); assay: Epitope mapping
T1 sequence (P05622 32-531 limits assumed): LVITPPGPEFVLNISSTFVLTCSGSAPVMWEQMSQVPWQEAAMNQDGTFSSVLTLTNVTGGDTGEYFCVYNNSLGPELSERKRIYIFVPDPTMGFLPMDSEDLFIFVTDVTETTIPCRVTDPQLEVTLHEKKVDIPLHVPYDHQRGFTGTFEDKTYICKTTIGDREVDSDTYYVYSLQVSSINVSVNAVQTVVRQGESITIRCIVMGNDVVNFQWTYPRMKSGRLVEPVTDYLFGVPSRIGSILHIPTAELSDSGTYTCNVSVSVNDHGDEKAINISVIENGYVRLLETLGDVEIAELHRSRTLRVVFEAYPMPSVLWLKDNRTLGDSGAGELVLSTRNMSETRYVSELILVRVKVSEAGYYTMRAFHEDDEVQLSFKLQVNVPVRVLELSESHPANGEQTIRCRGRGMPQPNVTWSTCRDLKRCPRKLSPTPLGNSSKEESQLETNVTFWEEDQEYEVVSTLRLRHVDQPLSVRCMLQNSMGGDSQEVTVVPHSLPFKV
Description: as §1, with “2C5 binds to domain 1 (D1) and domain 2 (D2) of PDGFRβ. Various” for “Various”

β1-3 = assay: Epitope mapping, shorter version of PDGFRβ (D1D2D3)
Description: as §1, with “2C5 binds to domain 1 (D1) and domain 2 (D2) of PDGFRβ. Various” for “Various”

Sequence of h5α (P16234 24-528 limits assumed): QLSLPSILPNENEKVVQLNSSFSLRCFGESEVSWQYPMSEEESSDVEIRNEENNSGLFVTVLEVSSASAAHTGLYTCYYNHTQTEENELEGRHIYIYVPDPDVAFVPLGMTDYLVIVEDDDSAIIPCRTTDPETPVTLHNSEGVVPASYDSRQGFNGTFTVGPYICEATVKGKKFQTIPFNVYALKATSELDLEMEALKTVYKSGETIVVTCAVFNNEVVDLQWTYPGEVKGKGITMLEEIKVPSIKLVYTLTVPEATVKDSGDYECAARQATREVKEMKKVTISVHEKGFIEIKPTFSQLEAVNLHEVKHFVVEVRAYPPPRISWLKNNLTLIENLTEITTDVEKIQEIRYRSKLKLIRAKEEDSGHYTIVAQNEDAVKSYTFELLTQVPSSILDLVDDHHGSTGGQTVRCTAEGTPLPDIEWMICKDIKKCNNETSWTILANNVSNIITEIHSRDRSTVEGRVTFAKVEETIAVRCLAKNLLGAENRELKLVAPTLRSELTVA

binding to 2β3α (2β3α): ✓ | binding to 3β2α (3β2α): ✓ | binding to 4β1α (4β1α): ✓ | binding to h5α (h5α): ✓ | binding to m5β (m5β): ✓ | binding to β1-3 (β1-3): ✓
Substance: PDGF-BB: platelet-derived growth factor dimer, ligand of PDGFRβ and PDGFRα [reference compound]
